Columns and labels:
Hm3 = Hm3 (Homo sapiens, UniProt P20309); assay: Binding to Hm3 receptor (mean KD, dissociation half-life)
[1] = Kallos-Pagel Model, effects vs. tiotropium; assay type: in vivo
RAO horses [2] = assay: Phase I and IV: mouldy hay challenge, single inhaled administration, lung function for 24 h; assay type: in vivo, horse
Method: LAMA 1 is investigated in two RAO horses at different phases or periods as part of a mouldy hay challenge study. The horses are challenged every day by exposure to mouldy hay. LAMA 1 is administered via the Equine Inhaler device at different doses or formulations. Lung function parameters (change in transpulmonary pressure (ΔPL), lung resistance (RL) and lung elastance (EL)) are measured for 24 h. A single administration of 800 μg LAMA 1 (8 actuations in aqueous formulation) is performed per inhalation to two RAO horses (ID numbers: 312 and 91) in phase I. Two RAO horses are treated with LAMA 1 in phase IV (ID numbers: 40 and 91), which can be divided into three periods. 2000 μg LAMA 1 (20 actuations in aqueous formulation) is administered per inhalation in period 1. 2000 μg LAMA 1 ([…] in ethanolic formulation) is administered per inhalation in period 2. 2000 μg LAMA 1 (20 actuations in ethanolic formulation) is administered per inhalation in period 3.

RAO horses [3] = assay: Phase II: cross-over, blinded mouldy hay challenge study, 7 days treatment; assay type: in vivo, horse; settings: for EL values over time / ΔPL values over time: Days 4 and 8 compared to Day 1; for RL values over time: clenbuterol group and 800 μg LAMA 1 group
Method: LAMA 1 is investigated in a cross-over, blinded mouldy hay challenge study. 8 RAO horses are examined in the study, which is divided into an acclimation and a treatment phase. Placebo for LAMA 1 is administered once daily per inhalation via the Equine Inhaler device to all horses for 1 week in the acclimation period. LAMA 1 and clenbuterol are administered to the horses in a cross-over design in the treatment phase. The horses are challenged by exposure to mouldy hay throughout the acclimation and treatment phases. LAMA 1 is administered with the doses of 200 μg (2 actuations)/400 μg (4 actuations)/800 μg (8 actuations)/horse (ex-RESPIMAT®) once daily for 7 days per inhalation via the Equine Inhaler device. Nozzle A and a commercially available RESPIMAT® is used in the study. Clenbuterol is administered with a dose of 0.8 μg/kg per os, twice daily for 7 days. Lung function variables (change in transpulmonary pressure (ΔPL), lung resistance (RL) and lung elastance (EL)), breathing effort score, Borborygmi score, blood gas analysis are examined during the study.

healthy horses = assay: Phase III: ECG measurements for 48 h after single inhalation; assay type: in vivo, horse; settings: single 800 μg inhalation, aqueous formulation, two healthy horses
Method: A single administration of 800 μg LAMA 1 (8 actuations in aqueous formulation) is performed per inhalation to two healthy horses in phase III. Subsequently, ECG measurements are done for 48 h.

[4] = 800 μg group, Day 7 compared to Day 0
[5] = day 4, all LAMA 1 groups (200, 400, 800 μg)

Chain of Hm3 (P20309 whole entry): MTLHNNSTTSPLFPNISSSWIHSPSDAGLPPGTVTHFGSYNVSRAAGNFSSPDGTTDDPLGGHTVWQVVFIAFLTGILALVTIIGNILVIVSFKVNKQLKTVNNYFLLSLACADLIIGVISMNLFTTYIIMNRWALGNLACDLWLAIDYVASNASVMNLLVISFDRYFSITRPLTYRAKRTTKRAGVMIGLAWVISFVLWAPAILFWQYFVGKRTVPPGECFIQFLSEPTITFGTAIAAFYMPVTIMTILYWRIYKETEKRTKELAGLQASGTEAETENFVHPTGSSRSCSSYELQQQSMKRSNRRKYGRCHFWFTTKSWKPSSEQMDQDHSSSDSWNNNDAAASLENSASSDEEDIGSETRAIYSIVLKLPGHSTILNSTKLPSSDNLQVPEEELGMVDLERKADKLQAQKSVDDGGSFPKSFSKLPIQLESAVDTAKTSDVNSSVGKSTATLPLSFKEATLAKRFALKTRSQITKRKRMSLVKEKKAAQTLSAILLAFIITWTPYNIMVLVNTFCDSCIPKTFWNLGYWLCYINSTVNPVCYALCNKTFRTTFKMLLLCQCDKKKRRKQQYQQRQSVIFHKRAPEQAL

Row | Structure (SMILES) | Kd (Hm3) [nM] | Effects in the Kallos-Pagel Model: protection ([1]; acute and chronic) [h] | Effects in the Kallos-Pagel Model vs. tiotropium: lower efficacy (chronic) ([1]; chronic, vs. tiotropium) [fold] | Lung function variables at 24 h after single administration (RAO horses [2]; 24 h, compared with pre-treatment values) | Time until which lung function values continue to drop (RAO horses [2]; depending on lung function parameter, dose or formulation) [h] | Start of decrease in lung function variables (ΔPL, RL, EL) after administration (RAO horses [2]; single inhalation of 800 μg or 2000 μg, aqueous or ethanolic formulation) [min] | pH in arterial blood (RAO horses [3]; [4]) | paCO2 in arterial blood (RAO horses [3]; [4]) | EL values over time (RAO horses [3]) | ΔPL values over time (RAO horses [3]) | Improvement in lung function after one week, compared with clenbuterol (RAO horses [3]; LAMA 1 once daily for one week, clenbuterol twice daily for one week) | RL values over time (RAO horses [3]) | Change in EL 30 min after administration (RAO horses [3]; day 4, 200 and 400 μg LAMA 1) | Change in ΔPL 30 min after administration (RAO horses [3]; day 4, 200 and 400 μg LAMA 1) | EL 30 min after administration vs pre-treatment (RAO horses [3]; [5]) | RL 30 min after administration vs pre-treatment (RAO horses [3]; [5]) | ΔPL 30 min after administration vs pre-treatment (RAO horses [3]; [5]) | ECG: abnormal observation (healthy horses) | ECG: arrhythmias (healthy horses) | Breathing effort score (RAO horses [3]; study day 6, clenbuterol 0.8 μg/kg per os twice daily compared with 2 or 4 actuations of LAMA 1)
1 | CC(C(=O)O[C@H]1CC2C3O[C@@H]3[C@H](C1)[N+]2(C)C)(c1ccccc1)c1ccccc1 (stereo partly drawn) [LAMA 1, (1α,2β,4β,5α,7β)-3-Oxa-9-azoniatricyclo [3.3.1.0^2.4] nonane, 9,9-dimethyl-7-(1-oxo-2,2-diphenylpropoxy)-bromide] | 0.4 | 24 | 10 | below or reach the pre-treatment values | 2 to 8 | 5 | increases | reduces significantly | None of the treatments (LAMA 1 or clenbuterol) alters significantly | None of the treatments (LAMA 1 or clenbuterol) alters significantly | comparable to the significant improvement in lung function after the twice daily administration of clenbuterol | significantly reduced | statistically significant | statistically significant | decrease | decrease | decrease | Only one observation is classified as either a first-degree heart block with aberrant intraventricular repolarization, or an artifact | Physiological arrhythmias are noted in both horses before and following the administration | –
2 | CC(C)(C)NCC(O)c1cc(Cl)c(N)c(Cl)c1 (centres unmarked) [clenbuterol, reference compound] | – | – | – | – | – | – | – | – | None of the treatments (LAMA 1 or clenbuterol) alters significantly | None of the treatments (LAMA 1 or clenbuterol) alters significantly | – | significantly reduced | – | – | – | – | – | – | – | significantly smaller breathing effort scores

Reference: patent US10682345B2, “Muscarinic antagonists and combinations thereof for the treatment of airway disease in horses” (Boehringer Ingelheim Vetmedica GmbH, priority 2014, dated 2020)
